This note sets out measurements from US11891379B2, “Deuterated Defactinib compound and use thereof” (HINOVA PHARMACEUTICALS INC., priority 2018, dated 2024).

Data set [1] is described as follows: Metabolic stability in rat liver microsomes. Type of data set: in vitro ADME. Particulars: for half-life at 2 μM: rat liver microsomes 0.5 mg/mL, test compound 2 μM, sampling 0-60 min, read-out: Half life t1/2 (min) in rat liver microsomes; for metabolic stability in the liver microsomes compared with non-deuterated control defactinib: rat liver microsomes, result in words. As to the method: (§1) Step 1. The mother solution was prepared according to the component ratio in Table 1 below:
(§2) Step 2: Two experiments were carried out as follows:
(§3) A) Adding reduced coenzyme II (NADPH): 20 mg/mL liver microsomes (10 μL) and 10 mM NADPH (40 μL) were added into the incubation experiment. The final concentrations of liver microsomes and NADPH were 0.5 mg/mL and 1 mM, respectively.
(§4) B) Without NADPH: 20 mg/mL liver microsomes (10 μL) and high pure water (40 μL) were added into the incubation experiment. The final concentration of liver microsomes was 0.5 mg/mL.
(§5) Step 3: The reaction began after adding 200 μM positive control (4 μL) or test compound. The positive control was verapamil in this experiment. The final concentration of the test compound was 2 μM.
(§6) Step 4: At the time points 0 min, 15 min, 30 min, 45 min, and 60 min, 50 μL solution was sampled from each reaction solution. Acetonitrile (4× volumes of reaction solution) and IS (100 nM alprazolam, 200 nM labetalol, 200 nM caffeine, and 2 μM ketoprofen) were added to the reaction solution. The sample was centrifuged at 3220 g gravity for 40 min. 100 μL high pure water was added into 100 μL supernatant and analyzed by LC-MS/MS.
(§7) Step 5: Data analysis: the peak area was determined from the extracted ion chromatogram. The slope value k was determined by linear regression of the natural logarithm obtained from the curve between the residual percentage of parent drug and the incubation time.
(§8) In vitro half-life (In vitro t1/2) was determined by the slope value: in vitro t1/2=−([…]/k In vitro intrinsic clearance (in vitro CLint, in […]) was converted from in vitro half-life t1/2 (min) using the following equation (mean value of repeated determinations): […]
(§9) Scale up intrinsic clearance (Scale up CLint, in mL/min/kg) was converted from in vitro half-life t1/2 (min) using the following equation (mean value of repeated determinations): […]
(In general: Liver microsomes are a subcellular fraction often used to study metabolism.)

Data set [2] in a line: Metabolic stability in mouse liver microsomes. Format: in vitro ADME. The settings on record: for half-life at 2 μM: mouse liver microsomes 0.5 mg/mL, test compound 2 μM, sampling 0-60 min, read-out: Half life t1/2 (min) in mouse liver microsomes; for metabolic stability in the liver microsomes compared with non-deuterated control defactinib: mouse liver microsomes, result in words. As to the method:
as §1, §2, §3, §4, §5, §6, §7, §8, §9

Data set [3] is described as follows: Pharmacokinetic experiment in rats (PO, 10 mpk). Format: in vivo. Particulars: Sprague-Dawley (SD), rat, 10 mg/kg, male SD rats, PO by gavage, plasma; for AUC: read-out: Exposure dose AUC; for half-life: read-out: Half life t1/2 (converted); for Tmax: read-out: Peak hours tmax; for Cmax: read-out: Peak plasma concentration Cmax(ng/mL); for MRT inf: read-out: Retention time MRTinf. As for the experimental part:
Appropriate amount of drug (equivalent to 10 mg of the original drug) was accurately weighed, to which was first added 0.25 ml DMA to dissolve drug, and 0.5% CMC-Na was slowly added to 5 ml, then mixed well with ultrasonic and vortex. 0.2 ml final solution prepared was taken out and stored at −20° C. for concentration determination. Three healthy adult male SD rats (180-250 g) received drugs at 5 ml/kg by gavage after fasting overnight (free drinking water); 0.1 ml blood was collected from retroorbital venous plexus before administration and 0.5, 1, 2, 4, 6, 8, 12 and 24 h after administration, and plasma was separated by centrifugation at 4° C. for 5 min and stored at −20° C. for use. Then, LC/MS/MS method was used to determine the concentration of compounds in plasma.

The nature of data set [4]: Metabolic stability in human liver microsomes. Format: in vitro ADME. Particulars: for half-life at 2 μM: human liver microsomes 0.5 mg/mL, test compound 2 μM, sampling 0-60 min, read-out: Half life t1/2 (min) in human liver microsomes; for metabolic stability in the liver microsomes compared with non-deuterated control defactinib: human liver microsomes, result in words. As for the experimental part:
as §1, §2, §3, §4, §5, §6, §7, §8, §9

The AUC is concentration integrated over time. The term Tmax denotes the time at which the peak concentration occurs. `[2H]C([2H])([2H])NC(=O)c1ccc(Nc2ncc(C(F)(F)F)c(NCc3nccnc3N(C)S(C)(=O)=O)n2)cc1` [Compound 1, N-(trideuteromethyl)-4-((4-(((3-(N-methylmethylsulfonyl)pyrazin-2-yl)methyl)amino)-5-(trifluoromethyl)pyrimidin-2-yl)amino)benzamide]: in data set [1], the half-life at 2 μM amounted to 151 min and the “metabolic stability in the liver microsomes compared with non-deuterated control defactinib” value is on record as “significantly improved”. Moreover, in data set [2], the half-life at 2 μM is 87 min and the “metabolic stability in the liver microsomes compared with non-deuterated control defactinib” value is given as “significantly improved”. Also, in data set [3], the AUC is 2840 ng·h/mL, the half-life is 1.74 h, the Tmax came to 0.67 h and the Cmax was 1220 ng/mL. The MRT inf in data set [3] is 2.03 h. Besides, in data set [4], the half-life at 2 μM worked out at 894 min and the “metabolic stability in the liver microsomes compared with non-deuterated control defactinib” value is “significantly improved”.
With `[2H]C([2H])([2H])NC(=O)c1ccc(Nc2ncc(C(F)(F)F)c(NCc3nccnc3N(C([2H])([2H])[2H])S(C)(=O)=O)n2)cc1` [Compound 3, N-(trideuteromethyl)-4-((4-(((3-(N-deuteromethylmethanesulfonamido)pyrazin-2-yl)methyl)amino)-5-(trifluoromethyl)pyrimidin-2-yl)amino)benzamide], in data set [1], the half-life at 2 μM came to 370 min and the “metabolic stability in the liver microsomes compared with non-deuterated control defactinib” value is “significantly improved”. For the same compound, in data set [2], the half-life at 2 μM is 406 min and the “metabolic stability in the liver microsomes compared with non-deuterated control defactinib” value is on record as “significantly improved”. For the same compound, in data set [3], the AUC was 3740 ng·h/mL, the half-life was 2.46 h, the Tmax was determined as 1.67 h and the Cmax was 971 ng/mL. The MRT inf in data set [3] is 3.35 h. Also, in data set [4], the half-life at 2 μM was 781 min and the “metabolic stability in the liver microsomes compared with non-deuterated control defactinib” value is given as “significantly improved”.
On to `[2H]C([2H])([2H])N(c1nccnc1CNc1nc(Nc2ccc(C(=O)NC)cc2)ncc1C(F)(F)F)S(C)(=O)=O` [Compound 2, N-methyl-4-((4-(((3-(N-deuteromethylmethanesulfonamido)pyrazin-2-yl)methyl)amino)-5-(trifluoromethyl)pyrimidin-2-yl)amino)benzamide], for which the half-life at 2 μM in data set [1] was 47 min; in data set [2] it was 70 min; in data set [4], 100 min. Further, the “metabolic stability in the liver microsomes compared with non-deuterated control defactinib” value in data set [1] and in data set [4] was “slightly worse” throughout.
As for `CNC(=O)c1ccc(Nc2ncc(C(F)(F)F)c(NCc3nccnc3N(C)S(C)(=O)=O)n2)cc1` [Defactinib, N-methyl-4-((4-(((3-(N-methylmethylsulfonyl)pyrazin-2-yl)methyl)amino)-5-(trifluoromethyl)pyrimidin-2-yl)amino)benzamide], the half-life at 2 μM in data set [1] amounted to 94 min. Further, the half-life at 2 μM in data set [2] was found to be 63 min. For the same compound, in data set [3], the AUC stood at 1650 ng·h/mL, the half-life is 1.46 h, the Tmax turned out to be 0.67 h and the Cmax was 643 ng/mL. The MRT inf in data set [3] amounted to 2.4 h. For the same compound, in data set [4], the half-life at 2 μM is 260 min.
